Laboratory results from patent US5661147A, “Imidazoquinazoline derivatives” (Kyowa Hakko Kogyo Co., Ltd., priority 1993, dated 1997).
Counter-ions that a name gives are not always drawn.

Legend:
[1] = target: T1, PDE V (cGMP-specific PDE) (Canis lupus familiaris, UniProt O77746); experiment: Inhibitory activity on PDE V purified from canine tracheal smooth muscle (Test Example 1); type: biochemical; details: 1.0 μM [3H]cGMP substrate; for inhibition at 0.001 µM: 1 nM, read-out: PDE Inhibitory activity, PDE V, Percent inhibition
T1 construct: purified from canine tracheal smooth muscle; from tissue; host or cells: canine tracheal smooth muscle
Method: The inhibitory activity on PDE derived from canine tracheal smooth muscle
The measurement of the PDE I activity was carried out using 1.0 μM [^3 H]cAMP as a substrate in the presence of 0.4 mM CaCl2 and 20 units/ml calmodulin. The measurement of the PDE II activity was carried out using 1.0 μM [^3 H]cAMP as a substrate in the presence of 10 μM cGMP. The measurement of the PDE III, IV and V activity was carried out using, as a substrate, 1.0 μM [^3 H]cAMP, 1.0 μM [^3 H]cAMP and 1.0 μM [3H]cGMP, respectively. […] Respective reactions were carried out in a buffer having the following composition:
50 mM N,N-bis(2-hydroxyethyl)-2-aminoethanesulfonic acid (pH 7.2), 1 mM MgCl2, 0.1 mg/ml soybean trypsin inhibitor.
(§1) The reaction was started by addition of an enzyme and stopped by addition of hydrochloric acid after 10 to 30 minutes at 30° C. Thereafter, sodium hydroxide was added to neutralize and 5'-AMP or 5'-GMP was converted into adenosine or guanosine using 5'-nucleotidase. The reaction solution was subjected to DEAE-Sephadex A-25 column. [^3 H]Adenosine [^3 H]guanosine was eluted with distilled water and the radioactivity was measured with a liquid scintillation counter.

[2] = target: T2, PDE III (cAMP-specific PDE which is inhibited by cGMP) (Canis lupus familiaris, UniProt A0A8I3NYE0); experiment: Inhibitory activity on PDE III purified from canine tracheal smooth muscle (Test Example 1); type: biochemical; details: 1.0 μM [3H]cAMP substrate, 10 μM rolipram added; for inhibition at 1 µM: read-out: PDE Inhibitory activity, PDE III, Percent inhibition
T2 construct: purified from canine tracheal smooth muscle; from tissue; host or cells: canine tracheal smooth muscle
T2 sequence (A0A8I3NYE0 1-1135): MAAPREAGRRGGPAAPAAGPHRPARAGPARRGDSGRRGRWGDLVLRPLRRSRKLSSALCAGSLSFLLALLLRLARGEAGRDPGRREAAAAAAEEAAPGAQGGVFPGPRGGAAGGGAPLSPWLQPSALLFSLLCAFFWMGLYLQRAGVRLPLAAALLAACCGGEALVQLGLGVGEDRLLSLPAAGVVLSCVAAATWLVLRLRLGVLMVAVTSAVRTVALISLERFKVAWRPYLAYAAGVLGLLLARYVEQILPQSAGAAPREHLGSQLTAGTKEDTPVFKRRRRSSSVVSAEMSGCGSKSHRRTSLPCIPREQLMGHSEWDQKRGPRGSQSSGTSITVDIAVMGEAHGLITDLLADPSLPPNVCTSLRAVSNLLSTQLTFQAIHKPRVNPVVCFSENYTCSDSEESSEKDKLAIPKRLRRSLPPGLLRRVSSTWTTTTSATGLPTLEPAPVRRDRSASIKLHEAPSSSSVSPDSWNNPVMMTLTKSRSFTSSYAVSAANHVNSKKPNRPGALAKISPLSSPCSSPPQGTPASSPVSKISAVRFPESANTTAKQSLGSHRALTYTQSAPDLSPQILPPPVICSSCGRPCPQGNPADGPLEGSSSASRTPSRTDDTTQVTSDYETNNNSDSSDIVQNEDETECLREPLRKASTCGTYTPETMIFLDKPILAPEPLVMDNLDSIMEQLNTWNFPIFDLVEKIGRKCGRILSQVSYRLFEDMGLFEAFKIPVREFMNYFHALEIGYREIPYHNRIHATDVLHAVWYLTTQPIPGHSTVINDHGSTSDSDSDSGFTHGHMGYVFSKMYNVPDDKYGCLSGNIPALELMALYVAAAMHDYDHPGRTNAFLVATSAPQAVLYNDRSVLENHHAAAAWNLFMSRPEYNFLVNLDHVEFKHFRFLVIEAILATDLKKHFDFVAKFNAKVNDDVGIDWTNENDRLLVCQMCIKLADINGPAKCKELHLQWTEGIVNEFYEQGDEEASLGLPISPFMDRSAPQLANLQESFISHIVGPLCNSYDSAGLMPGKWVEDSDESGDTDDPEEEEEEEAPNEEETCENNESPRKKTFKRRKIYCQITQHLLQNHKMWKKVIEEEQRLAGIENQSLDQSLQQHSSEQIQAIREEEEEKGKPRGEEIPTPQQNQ
Method: as §1

[3] = system: PDE II (PDE which is activated by cGMP); experiment: Inhibitory activity on PDE II purified from canine tracheal smooth muscle (Test Example 1); type: biochemical; details: 10 μM; 1.0 μM [3H]cAMP substrate, 10 μM cGMP
Method: as §1

[4] = system: PDE IV (cAMP-specific PDE); experiment: Inhibitory activity on PDE IV purified from canine tracheal smooth muscle (Test Example 1); type: biochemical; details: 1.0 μM [3H]cAMP substrate, 25 μM cGMP added
Method: as §1

[5] = system: PDE I (PDE which is activated by calmodulin); experiment: Inhibitory activity on PDE I purified from canine tracheal smooth muscle (Test Example 1); type: biochemical; details: 10 μM; 1.0 μM [3H]cAMP substrate, CaCl2 and calmodulin
Method: as §1

[6] = Hypotensive effects in guinea pigs (Test Example 2); type: in vivo, guinea pig; details: anesthetized guinea pigs, in DMSO
Method: Hypotensive effects in guinea pigs.
After a guinea pig, anesthetized with pentobarbital, was fixed in the supine position, a cannula was inserted into trachea and guinea pig was artificially ventilated under the conditions of a tidal volume of […] and 60 breathes/min. The carotid artery and the jugular vein were cannulated for measuring arterial blood pressure and administering drugs, respectively. Drugs were dissolved in DMSO (50 μl) and administered intravenously using the above cannula.
The maximum percent values from the pre-drug level (100%) in mean blood pressure (mBP) were obtained.

CCn1c(=O)[nH]c2cc3c(NCc4ccc(F)c(F)c4)ncnc3cc21 [Compound 20, 8-(3,4-difluorobenzylamino)-3-ethyl-2,3-dihydro-1H-imidazo[4,5-g]quinazoline-2-one hydrochloride] showed an inhibition at 0.001 µM [1] of 69% and an inhibition at 1 µM [2] of 47%.
For CCn1c(=O)[nH]c2cc3c(NCc4cccc(OC)c4)ncnc3cc21 [Compound 15, 3-ethyl-8-(3-methoxybenzylamino)-2,3-dihydro-1H-imidazo[4,5-g]quinazoline-2-one hydrochloride], the inhibition at 0.001 µM [1] was 67% and the inhibition at 1 µM [2] was 50%.
For CCn1c(=S)[nH]c2cc3c(NCc4cccc(C(F)(F)F)c4)ncnc3cc21 [Compound 54, 3-ethyl-8-(3-trifluoromethylbenzylamino)-2,3-dihydro-1H-imidazo[4,5-g]quinazoline-2-thione hydrochloride], the inhibition at 0.001 µM [1] was 96% and the inhibition at 1 µM [2] was 32%.
With CCn1c(=O)[nH]c2cc3c(NCC4CCCO4)ncnc3cc21 (stereo not drawn) [Compound 30, 3-ethyl-8-(2,3,4,5-tetrahydro-2-furylmethylamino)^- 2,3-dihydro-1H-imidazo[4,5-g]quinazoline-2-one hydrochloride] the IC50 [1] was 0.18 nM, the “PDE Inhibitory activity, PDE II, Percent inhibition” value [3] was 61% and the IC50 [4] was greater than 10000 nM. For the same molecule, the IC50 [2] was 1100 nM and the “PDE Inhibitory activity, PDE I, Percent inhibition” value [5] was 58%.
With CCCn1c(=S)[nH]c2cc3c(NCc4ccccc4)ncnc3cc21 [Compound 42, 8-benzylamino-3-(n-propyl)-2,3-dihydro-1H-imidazo[4,5-g]quinazoline-2-thione] the inhibition at 0.001 µM [1] was 94% and the inhibition at 1 µM [2] was 27%.
Molecule CCn1c(=S)[nH]c2cc3c(NCc4cccc(OC)c4)ncnc3cc21 [Compound 51, 3-ethyl-8-(3-methoxybenzylamino)-2,3-dihydro-1H-imidazo[4,5-g]quinazoline-3-thione hydrochloride] has an inhibition at 0.001 µM [1] of 97% and an inhibition at 1 µM [2] of 48%.
With CCn1c(=S)[nH]c2cc3c(NCc4ccccc4)ncnc3cc21 [Compound 39, 8-benzylamino-3-ethyl-2,3-dihydro-1H-imidazo[4,5-g]quinazoline-2-thione] the “maximum percent values from the pre-drug level (100%) in mean blood pressure (mBP)” value ([6]; 1 μg/kg i.v.) was 100.20%, the “maximum percent values from the pre-drug level (100%) in mean blood pressure (mBP)” value ([6]; 3 μg/kg i.v.) was 80.00% and the “maximum percent values from the pre-drug level (100%) in mean blood pressure (mBP)” value ([6]; 10 μg/kg i.v.) was 72.30%. For the same molecule, the “maximum percent values from the pre-drug level (100%) in mean blood pressure (mBP)” value ([6]; 30 μg/kg i.v.) was 51.20%.
In the case of CCn1c(=S)[nH]c2cc3c(NCc4ccncc4)ncnc3cc21.Cl.Cl [Compound 47, 3-ethyl-8-(4-pyridylmethylamino)-2,3-dihydro-1H-imidazo[4,5-g]quinazoline-2-thione dihydrochloride], the inhibition at 0.001 µM [1] is reported as 91%, the “PDE Inhibitory activity, PDE II, Percent inhibition” value [3] is reported as 19% and the “PDE Inhibitory activity, PDE IV, Percent inhibition” value ([4]; 10 μM) is reported as 20%. For the same molecule, the inhibition at 1 µM [2] was 60% and the “PDE Inhibitory activity, PDE I, Percent inhibition” value [5] was 12%.
